Assay results published in patent publication US7172865B2, “Rapid and sensitive assay for the detection and quantification of coregulators of nucleic acid binding factors” (Saint Louis University, priority 2001, dated 2007).

Key:
LacR protein = LacR protein (Escherichia coli, UniProt P03023); assay: IPTG biosensor; format: binding; conditions: 50 nM and 60 nM components, 2 hrs
Protocol: FIG. 24 describes a biosensor for detecting IPTG. Increasing concentrations of IPTG were added to a mixture containing 50 nM fluorescein-labeled LacR-specific first nucleic acid component and 60 nM dabcyl-labeled Lac-specific second nucleic acid component.
FIG. 24 illustrates a biosensor design using a nucleic acid binding factor for which the coregulator reduced its affinity for a specific nucleic acid element. In this case, the coregulator will induce the dissociation of the protein-nucleic acid complex and its detection could be accomplished by coregulator-dependent disappearance of protein-nucleic acid complex. […] In the absence of IPTG (a coregulator for LacR) the LacR protein bound to its labeled cognate nucleic acid element resulting in quenching of the fluorescence signal.

[1] = test system: LacR binding site split between LAC1/LAC4 and LAC2/LAC3; assay: detection of Lac repressor protein by fluorescence quenching
Source text: The LAC1 oligonucleotide (SEQ ID NO:12) was hybridized with the LAC4 oligonucleotide (SEQ ID NO:15) to generate the LAC1/LAC4 construct and the LAC2 oligonucleotide (SEQ ID NO:13) was hybridized with the LAC3 oligonucleotide (SEQ ID NO:14) to generate the LAC2/LAC3 construct.

CAP protein = CAP protein (Escherichia coli, UniProt P0ACJ8); conditions: cited from earlier work
TrpR [2] = biological target: T1, TrpR (Escherichia coli, UniProt P0A881); assay: tryptophan biosensor, fluorescence intensity; format: binding; conditions: 250 nM and 300 nM components, 2 hrs
Protocol: Increasing concentrations of tryptophan were added to a mixture containing 250 nM fluorescein labeled TrpR-specific first nucleic acid component and 300 nM dabcyl-labeled Trp-specific second nucleic acid component.

TrpR [3] = biological target: T1, TrpR; assay: tryptophan biosensor, fluorescence polarization; format: binding; conditions: 4 nM fluorescein-labeled 25 bp duplex
Protocol: Increasing concentrations of tryptophan were added to a mixture containing 4 nM fluorescein-labeled 25 bp DNA duplex containing consensus TrpR binding sites.
To illustrate that a different detection methodology for measuring the formation of nucleic acid-protein complexes could be accommodated to the biosensor design shown in FIG. 20, a biosensor for tryptophan was prepared wherein only one nucleic acid component was attached to a detectable label. According to this particular embodiment of the invention, fluorescence polarization of fluorochrome-labeled DNA component containing a TrpR cognate binding site was used to measure tryptophan-induced formation of a TrpR-nucleic acid complex (FIG. 23).

[4] = test system: TrpR binding site split between TRP1/TRP4 and TRP2/TRP3; conditions: 250 nM TRP1/TRP4 and 300 nM TRP2/TRP3, 4 mM tryptophan
Protocol: The TRP1 oligonucleotide (SEQ ID NO:16) was hybridized with the TRP4 oligonucleotide (SEQ ID NO:19) to generate the TRP1/TRP4 construct and the TRP2 oligonucleotide (SEQ ID NO:17) was hybridized with the TRP3 oligonucleotide (SEQ ID NO:18) to generate the TRP2/TRP3 construct. For the hybridization, the appropriate oligonucleotides were mixed at 10 μM concentration in 100 μl of 50 mM Tris/HCl (pH 8.0), 100 mM NaCl, 1 mM EDTA, heated for 1 min at 95° C. and then cooled to 25° C. for 1 hr. All subsequent fluorescence measurements were performed at 15° C. in 10 mM potassium phosphate (pH 7.6), 50 mM NaCl, 0.1 mM EDTA, 4mM tryptophan, 10% glycerol, 0.01% sodium azide and 1.0 mg/ml BSA. […] The duplexes contain a TrpR binding site (underlined sequence) split between each of the two double stranded constructs.
The fluorescence spectra of 250 nM TRP1/TRP4 and 300 nM TRP2/TRP3 were recorded in the absence of TrpR (FIG. 16A, curve 1) and in the presence of varying amounts of TrpR in a range from 0–800 nM (FIG. 16A, curves 2–5). ).

Sequence of CAP protein (P0ACJ8 2-210): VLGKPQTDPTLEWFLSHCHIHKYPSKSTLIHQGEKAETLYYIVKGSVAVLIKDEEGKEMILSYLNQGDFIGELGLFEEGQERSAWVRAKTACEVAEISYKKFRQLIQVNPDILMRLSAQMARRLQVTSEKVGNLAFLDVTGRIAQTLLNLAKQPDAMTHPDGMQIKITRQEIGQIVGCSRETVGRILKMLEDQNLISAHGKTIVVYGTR

In the case of `CC(C)S[C@@H]1O[C@H](CO)[C@H](O)[C@H](O)[C@H]1O` [IPTG, reference compound], the “fluorescence signal response to IPTG” value (LacR protein) is reported as “IPTG-dependent increase in fluorescence signal” and the “effect on LacR nucleic acid binding activity” value ([1]; 5 mM IPTG) is reported as “reduces its nucleic acid binding activity”.

In the case of `Nc1nc2c(ncn2[C@@H]2O[C@@H]3COP(=O)(O)O[C@H]3[C@H]2O)c(=O)[nH]1` [cGMP], the “affinity of CAP for the cyclic nucleotide” value (CAP protein; CAP alone) is listed as “micromolar affinity” and the “change of affinity of CAP for the nucleotide in the presence of DNA containing a CAP binding site” value (CAP protein) is listed as “remains unchanged”.

With `N[C@@H](Cc1c[nH]c2ccccc12)C(=O)O` [tryptophan] the “fluorescence signal response to tryptophan” value (TrpR [2]) was “large fluorescence signal change” and the “fluorescence polarization response to tryptophan” value (TrpR [3]) was “change of fluorescence polarization signal proportional to tryptophan concentration”.

B1: LacR: Lac repressor protein, nucleic acid binding reduced by IPTG (protein, UniProt P03023 1-360, looked up)
Lactose operon repressor: MKPVTLYDVAEYAGVSYQTVSRVVNQASHVSAKTREKVEAAMAELNYIPNRVAQQLAGKQSLLIGVATSSLALHAPSQIVAAIKSRADQLGASVVVSMVERSGVEACKAAVHNLLAQRVSGLIINYPLDDQDAIAVEAACTNVPALFLDVSDQTPINSIIFSHEDGTRLGVEHLVALGHQQIALLAGPLSSVSARLRLAGWHKYLTRNQIQPIAEREGDWSAMSGFQQTMQMLNEGIVPTAMLVANDQMALGAMRAITESGLRVGADISVVGYDDTEDSSCYIPPLTTIKQDFRLLGQTSVDRLLQLSQGQAVKGNQLLPVSLVKRKTTLAPNTQTASPRALADSLMQLARQVSRLESGQ
In the case of B1, the “protein concentration at saturation of quenching” value [4] is reported as “approximately 150 nM” and the “protein concentration at saturation of quenching” value ([1]; 50 nM LAC1/LAC4 plus LAC2/LAC3) is reported as “approximately 150 nM”.
